Test results from PubChem BioAssay (NCI).
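Compound exposure: 48 hours, 5 concentrations, 96-well plates. Here, GI50 denotes the concentration required for 50% inhibition of growth. TGI is the concentration that stops growth completely.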

Tests used:
Assay in all cases: DTP human tumour cell line panel, 48 h
[1] = tested on: PC-3 prostate
[2] = tested on: HS 578T breast
[3] = tested on: DU-145 prostate
[4] = tested on: MALME-3M melanoma
[5] = tested on: MDA-MB-231 breast
[6] = tested on: T-47D breast
[7] = tested on: MDA-MB-435
[8] = tested on: NCI/ADR-RES ovarian
[9] = tested on: KM20L2 colon
[10] = tested on: DMS 114 small cell lung
[11] = tested on: LXFL 529 NSCLC
[12] = tested on: DMS 273 small cell lung
[13] = tested on: M19-MEL melanoma

Compound: CCCc1ccc(OCC(=O)N/N=C/c2c(-c3ccccc3)[nH]c3ccccc23)cc1
- TGI [1]: 29.4 µM
- TGI [2]: > 100 µM
- TGI [3]: > 100 µM
- TGI [4]: > 100 µM
- TGI [5]: 28.9 µM
- TGI [6]: 52.4 µM
- TGI [7]: 8.74 µM
- TGI [8]: 42.5 µM

Compound: CC(O)=NC(Cc1ccc2ccccc2c1)C(O)=NC(Cc1ccc(Cl)cc1)C(O)=NC(Cc1c[nH]c2ccccc12)C(O)=NC(CO)C(O)=NC(Cc1ccc(O)cc1)C(O)=NC(CCCN=C(N)N)C(O)=NC(CC(C)C)C(O)=NC(CCCN=C(N)N)C(=O)N1CCCC1C(O)=NC(C)C(=N)O (stereo unspecified)
- TGI [1]: > 100 µM
- TGI [2]: > 100 µM
- TGI [3]: > 100 µM
- TGI [4]: > 100 µM
- TGI [5]: > 100 µM
- TGI [7]: > 100 µM
- TGI [8]: > 100 µM

Compound: CCOC(=O)[C@H]1C[C@]23CN(C(=O)OC(C)(C)C)CC[C@H]2CCC2(SCCCS2)[C@@H]3N1C
- TGI [1]: 89.9 µM
- TGI [2]: > 100 µM
- TGI [3]: > 100 µM
- TGI [4]: 74.6 µM
- TGI [6]: > 100 µM
- TGI [7]: > 100 µM
- TGI [8]: > 100 µM

Compound: C[n+]1c(-c2ccc(/C=N\NC(=O)c3ccc(C(=O)N/N=C/c4ccc(-c5cn6ccsc6[n+]5C)cc4)cc3)cc2)cn2ccsc21
- TGI [1]: 41.1 µM
- TGI [2]: 54.7 µM
- TGI [3]: 35 µM
- TGI [4]: 47.7 µM
- TGI [5]: 42.1 µM
- TGI [7]: 37.7 µM
- TGI [8]: 41.1 µM

Compound: CS(=O)(=O)OCc1c(O)c2c(c(O)c1COS(C)(=O)=O)C(=O)C=CC2=O
- TGI [9]: > 100 µM
- TGI [4]: > 100 µM
- TGI [10]: > 100 µM
- TGI [11]: > 100 µM
- TGI [12]: > 100 µM

Compound: C=C1C(=O)OC2/C=C(\C)CC(O)/C=C(/CO)CC(OC(=O)/C(C)=C/C)C12 (stereo unspecified)
- TGI [9]: 246 µM
- TGI [4]: 66.6 µM
- TGI [13]: 92 µM
- TGI [10]: 30.5 µM
- TGI [12]: 82.5 µM
- TGI [8]: 538 µM

Compound: O=C(Nc1ccc(F)cc1)c1cc2ccc(O)cc2oc1=Nc1ccccc1F
- TGI [1]: > 100 µM
- TGI [2]: > 100 µM
- TGI [3]: > 100 µM
- TGI [4]: > 100 µM
- TGI [6]: > 100 µM
- TGI [7]: > 100 µM
- TGI [8]: 51.8 µM

Compound: CC[N+](CC)(CC)/C(=N/S(=O)(=O)c1cc(C)c(Cl)cc1S)[N-]S(=O)(=O)c1ccc(Cl)cc1
- TGI [1]: > 100 µM
- TGI [2]: > 100 µM
- TGI [3]: > 100 µM
- TGI [5]: > 100 µM
- TGI [6]: > 100 µM
- TGI [7]: > 100 µM
- TGI [8]: > 100 µM

Compound: C[C@H](O)C(=O)SC[C@H](NC(=O)CC[C@@H](N)C(=O)O)C(=O)NCC(=O)O
- TGI [9]: > 100 µM
- TGI [4]: > 100 µM
- TGI [13]: > 100 µM
- TGI [10]: > 100 µM
- TGI [11]: > 100 µM
- TGI [12]: > 100 µM

Compound: O=C(CCO)OCCCCCC/C=C\CCCCCC/C=C\CCCCCCCCOC(=O)CCO
- TGI [1]: 30.8 µM
- TGI [3]: 30 µM
- TGI [4]: 34.7 µM
- TGI [5]: 32.5 µM
- TGI [6]: 35.9 µM
- TGI [7]: 45.7 µM
- TGI [8]: 32.7 µM

Compound: CC(C)Cc1cccc(C(C)C)c1NC(=O)CCC(=O)N/N=C1\C(=N/NC(=O)CCC(=O)Nc2c(C(C)C)cccc2C(C)C)C(c2ccc3c(c2)OCO3)Oc2ccccc21 (stereo unspecified)
- TGI [9]: > 100 µM
- TGI [13]: > 100 µM
- TGI [10]: > 100 µM
- TGI [11]: > 100 µM
- TGI [12]: > 100 µM

Compound: Cc1ccc(S(=O)(=O)NCCSS(=O)(=O)c2ccc(C)cc2)cc1
- TGI [1]: 94.8 µM
- TGI [2]: > 100 µM
- TGI [3]: > 100 µM
- TGI [5]: > 100 µM
- TGI [6]: 53.9 µM
- TGI [7]: 52 µM
- TGI [8]: 72.3 µM

Compound: OC1(c2ccc3ccccc3c2)c2ccc3ccccc3c2C2=NCCN21 (stereo unspecified)
- TGI [1]: > 100 µM
- TGI [2]: 53 µM
- TGI [3]: > 100 µM
- TGI [4]: > 100 µM
- TGI [5]: > 100 µM
- TGI [6]: > 100 µM
- TGI [7]: > 100 µM
- TGI [8]: > 100 µM

Compound: O=c1cc(-c2nc3ccccc3[nH]2)[nH]c2nc(-c3nc4ccccc4[nH]3)cc(-c3ccc(Cl)cc3)c12
- TGI [1]: > 100 µM
- TGI [2]: > 100 µM
- TGI [3]: > 100 µM
- TGI [4]: 71.2 µM
- TGI [5]: 35.7 µM
- TGI [6]: 83.5 µM
- TGI [7]: 35.3 µM
- TGI [8]: 91.3 µM

Compound: Cc1onc(-c2c(F)cccc2Cl)c1C(=O)N[C@@H]1C(=O)N2[C@@H]1SC(C)(C)[C@@H]2C(=O)O
- TGI [1]: > 100 µM
- TGI [2]: > 100 µM
- TGI [3]: > 100 µM
- TGI [4]: > 100 µM
- TGI [5]: > 100 µM
- TGI [6]: > 100 µM
- TGI [7]: > 100 µM
- TGI [8]: > 100 µM

Compound: Cc1cc(-c2nc3cc(F)ccc3s2)ccc1NC(=O)C(C)N (stereo unspecified)
- TGI [1]: 8.71 µM
- TGI [2]: 10 µM
- TGI [3]: 8.17 µM
- TGI [4]: 25 µM
- TGI [5]: 7.7 µM
- TGI [6]: 6.35 µM
- TGI [7]: 10.5 µM
- TGI [8]: 10.2 µM

Compound: COc1cc(NCc2ccc3n2-c2ccccc2OC3)cc(OC)c1OC
- TGI [1]: 87.1 µM
- TGI [2]: > 100 µM
- TGI [3]: > 100 µM
- TGI [4]: 50.9 µM
- TGI [5]: 34.1 µM
- TGI [6]: > 100 µM
- TGI [7]: 33.8 µM
- TGI [8]: 22.5 µM

Compound: CCCC(=O)OCC(O)CO (stereo unspecified)
- TGI [4]: > 5000 µM
- TGI [13]: > 5000 µM
- TGI [10]: > 5000 µM
- TGI [11]: > 5000 µM
- TGI [12]: > 5000 µM

Compound: ClCC1(CCl)COC1
- TGI [1]: > 100 µM
- TGI [2]: > 100 µM
- TGI [3]: > 100 µM
- TGI [5]: > 100 µM
- TGI [6]: > 100 µM
- TGI [7]: > 100 µM
- TGI [8]: > 100 µM

Compound: NC(N)=N/N=C/c1ccc(O)c(C(=O)O)c1
- TGI [1]: > 100 µM
- TGI [2]: > 100 µM
- TGI [3]: > 100 µM
- TGI [4]: > 100 µM
- TGI [5]: > 100 µM
- TGI [6]: > 100 µM
- TGI [7]: > 100 µM
- TGI [8]: > 100 µM

Compound: O=C(/N=C/c1c(O)c2ccccc2oc1=O)NC1CCCCC1
- TGI [9]: > 100 µM
- TGI [13]: > 100 µM
- TGI [10]: > 100 µM
- TGI [11]: > 100 µM
- TGI [12]: > 100 µM

Compound: CCOc1ccc2c(c1)NC(=O)C(C1OC(c3ccccc3)=CC1=O)S2 (stereo unspecified)
- TGI [1]: 51.4 µM
- TGI [2]: 86 µM
- TGI [3]: > 100 µM
- TGI [4]: 44.5 µM
- TGI [5]: 60.5 µM
- TGI [6]: 36.3 µM
- TGI [7]: 44.4 µM
- TGI [8]: 67.1 µM

Compound: COc1ccc(-n2cc(-c3ccc(OC)c(OC)c3)nc2SCc2ccccc2)cc1Cl
- GI50 [1]: 13.8 µM
- TGI [1]: > 100 µM
- GI50 [2]: 25.3 µM
- TGI [2]: > 100 µM
- GI50 [3]: 27.6 µM
- TGI [3]: > 100 µM
- GI50 [5]: 26.9 µM
- TGI [5]: > 100 µM
- GI50 [6]: 9.45 µM
- TGI [6]: > 100 µM
- GI50 [7]: 27.8 µM
- TGI [7]: > 100 µM
- GI50 [8]: 42.7 µM
- TGI [8]: > 100 µM

Compound: C=CCC1=CC2(OC)C(=O)C(OC)(OC)C1C1C(OC)(OC)C(=O)C(OC)=CC12CC=C (stereo unspecified)
- TGI [1]: > 100 µM
- TGI [2]: > 100 µM
- TGI [3]: > 100 µM
- TGI [4]: > 100 µM
- TGI [5]: > 100 µM
- TGI [6]: > 100 µM
- TGI [7]: > 100 µM
- TGI [8]: > 100 µM

Compound: NC1=NS(=O)(=O)Nc2nc(-c3cccs3)[nH]c21
- TGI [9]: > 100 µM
- TGI [4]: > 100 µM
- TGI [13]: > 100 µM
- TGI [11]: > 100 µM
- TGI [12]: > 100 µM

Compound: CCOc1cc(NC(C)=O)ccc1C(=O)NN1C(=O)CSC1c1ccc(O)c(OC)c1 (stereo unspecified)
- TGI [1]: > 100 µM
- TGI [2]: > 100 µM
- TGI [3]: > 100 µM
- TGI [4]: > 100 µM
- TGI [5]: > 100 µM
- TGI [6]: > 100 µM
- TGI [7]: > 100 µM
- TGI [8]: > 100 µM

Compound: FC(F)(F)C1=NC(=NNc2nnc(-c3ccccc3)c(-c3ccccc3)n2)N=C(C(F)(F)F)C1
- TGI [9]: > 100 µM
- TGI [4]: > 100 µM
- TGI [13]: > 68.4 µM
- TGI [10]: 28.2 µM
- TGI [12]: > 100 µM
- TGI [8]: > 100 µM

Compound: CO[C@]12C[C@H](CNC(=O)c3cc(Br)c(Br)[nH]3)O[C@H]1NC(=O)N2
- TGI [1]: > 100 µM
- TGI [2]: > 100 µM
- TGI [3]: > 100 µM
- TGI [4]: > 100 µM
- TGI [5]: > 100 µM
- TGI [6]: > 100 µM
- TGI [7]: > 100 µM
- TGI [8]: > 100 µM
